According to ChEMBL document CHEMBL3244393, “6-aminopyrazolo[4,3-c]pyridin-4(5H)-one, a novel analogue of guanine” (J Med Chem, 1977):
The source made the active and inactive calls.

Tests used:
Human alphaherpesvirus 1 = test: Antiviral activity against Herpes virus type 1 infected in human KB cells assessed as inhibition of virus-induced cytopathic effect; assay type: functional, organism-based
KB = test: Antiviral activity against Rhinovirus type 13 infected in human KB cells assessed as inhibition of virus-induced cytopathic effect; assay type: functional, cell-based; conditions: Human rhinovirus A13
Human respirovirus 3 = test: Antiviral activity against Parainfluenza virus type 3 infected in human KB cells assessed as inhibition of virus-induced cytopathic effect; assay type: functional, organism-based

Measured: Activity

Nc1cc2[nH]ncc2c(=O)[nH]1
inactive: Human alphaherpesvirus 1 | KB | Human respirovirus 3
